This passage reports IC50 results from ChEMBL document CHEMBL1124361, “Tetrapeptide inhibitors of the IgA1 proteinases from type I Neisseria gonorrhoeae” (J Med Chem, 1989).

Peptide text beside a SMILES is read from it.

The experiment deals with IgA-specific serine endopeptidase autotransporter (Neisseria gonorrhoeae, UniProt P09790). Put plainly: Inhibitory concentration against type 1 IgA1 proteinases secreted by Neisseria gonorrhoeae.
IgA-specific serine endopeptidase autotransporter, sequence (P09790 whole entry): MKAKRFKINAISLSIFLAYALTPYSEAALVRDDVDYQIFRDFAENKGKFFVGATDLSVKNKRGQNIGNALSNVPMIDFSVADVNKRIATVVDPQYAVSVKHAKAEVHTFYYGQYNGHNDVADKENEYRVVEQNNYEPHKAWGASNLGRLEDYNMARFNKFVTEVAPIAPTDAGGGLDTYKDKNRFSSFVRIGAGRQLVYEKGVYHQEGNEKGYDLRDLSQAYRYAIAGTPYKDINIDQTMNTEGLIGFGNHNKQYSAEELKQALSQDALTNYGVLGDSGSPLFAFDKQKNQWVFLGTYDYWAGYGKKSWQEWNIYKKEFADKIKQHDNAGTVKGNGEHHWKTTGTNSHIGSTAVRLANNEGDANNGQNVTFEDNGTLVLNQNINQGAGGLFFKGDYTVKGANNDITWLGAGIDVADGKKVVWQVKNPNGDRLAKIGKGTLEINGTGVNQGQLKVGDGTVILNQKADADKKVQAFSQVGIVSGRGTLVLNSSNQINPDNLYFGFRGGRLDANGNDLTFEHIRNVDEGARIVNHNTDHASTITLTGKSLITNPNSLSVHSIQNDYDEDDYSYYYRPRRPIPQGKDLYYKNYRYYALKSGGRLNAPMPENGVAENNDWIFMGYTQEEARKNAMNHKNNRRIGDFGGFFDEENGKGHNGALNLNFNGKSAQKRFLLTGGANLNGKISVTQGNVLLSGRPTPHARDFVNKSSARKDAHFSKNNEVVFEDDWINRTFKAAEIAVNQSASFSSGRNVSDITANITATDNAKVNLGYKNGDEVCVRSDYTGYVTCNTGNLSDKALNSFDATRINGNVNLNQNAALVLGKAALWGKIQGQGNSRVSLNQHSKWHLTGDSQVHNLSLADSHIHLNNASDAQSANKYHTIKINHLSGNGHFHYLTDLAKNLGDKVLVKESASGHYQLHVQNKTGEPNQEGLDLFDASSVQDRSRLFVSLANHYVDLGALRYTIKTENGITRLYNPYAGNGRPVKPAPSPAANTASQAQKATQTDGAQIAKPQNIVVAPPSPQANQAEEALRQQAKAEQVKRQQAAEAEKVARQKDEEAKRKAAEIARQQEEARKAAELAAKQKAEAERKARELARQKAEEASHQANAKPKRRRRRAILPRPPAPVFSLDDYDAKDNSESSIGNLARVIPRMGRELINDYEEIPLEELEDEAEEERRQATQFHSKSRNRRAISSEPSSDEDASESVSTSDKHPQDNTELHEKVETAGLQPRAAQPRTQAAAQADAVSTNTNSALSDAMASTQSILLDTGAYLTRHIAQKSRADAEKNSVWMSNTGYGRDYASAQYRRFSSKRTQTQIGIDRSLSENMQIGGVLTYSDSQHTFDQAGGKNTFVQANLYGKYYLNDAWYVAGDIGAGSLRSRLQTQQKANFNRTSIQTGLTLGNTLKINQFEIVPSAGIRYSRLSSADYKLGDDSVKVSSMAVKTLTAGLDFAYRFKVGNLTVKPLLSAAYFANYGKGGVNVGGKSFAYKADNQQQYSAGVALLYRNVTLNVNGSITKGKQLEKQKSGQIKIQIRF

By IC50 is commonly meant the midpoint of a concentration-inhibition curve. Low readings indicate inhibition by little substance, high ones a need for much substance. As for `CC(=O)N[C@H](C(=O)N1CCC[C@H]1C(=O)N1CCC[C@H]1C(=O)N[C@H](C(=O)O)[C@@H](C)O)[C@@H](C)O` (Ac-TPPT-OH), the IC50 was more than 1000 µM. In the case of `C[C@@H](O)[C@H](N)C(=O)N1CCC[C@H]1C(=O)N1CCC[C@H]1C(=O)N[C@H](C(N)=O)[C@@H](C)O` (H-TPPT-NH2) it was 419 µM. The compound `CC(=O)N[C@@H](CO)C(=O)N[C@H](C(=O)N1CCC[C@H]1C(=O)N1CCC[C@H]1C(N)=O)[C@@H](C)O` (Ac-STPP-NH2) returned a 50% inhibitory concentration (IC50) of more than 1000 µM. Compound `C[C@@H](O)[C@H](NC(=O)[C@@H]1CCCN1)C(=O)N1CCC[C@H]1C(=O)N[C@@H](CO)C(=O)O` (H-PTPS-OH) came in with an IC50 of more than 1000 µM. In turn, `CC(=O)N1CCC[C@H]1C(=O)N1CCC[C@H]1C(=O)N[C@H](C(=O)N1CCC[C@H]1C(=O)O)[C@@H](C)O` (Ac-PPTP-OH) displayed an IC50 of more than 1000 µM. With `C[C@@H](O)[C@H](NC(=O)[C@@H]1CCCN1C(=O)[C@@H]1CCCN1)C(=O)N1CCC[C@H]1C(N)=O` [PROLYLPROLYLTHREONYLPROLINAMIDE(PPTPNH2)] (H-PPTP-NH2) the figure was more than 1000 µM. As for `CC(=O)N1CCC[C@H]1C(=O)N[C@@H](CO)C(=O)N1CCC[C@H]1C(=O)N[C@@H](CO)C(=O)O` (Ac-PSPS-OH), 675 µM corresponded to half-maximal inhibition (IC50). Regarding `C[C@@H](O)[C@H](N)C(=O)N1CCC[C@H]1C(=O)N[C@@H](CO)C(=O)N1CCC[C@H]1C(N)=O` [THREONYLPROLYLSERYLPROLINAMIDE(TPSPNH2)] (H-TPSP-NH2), the IC50 was more than 1000 µM. Consider `C[C@@H](O)[C@H](N)C(=O)N1CCC[C@H]1C(=O)N[C@@H](CO)C(=O)N1CCC[C@H]1C(=O)O` (H-TPSP-OH), for which the IC50 was 33.1 µM. For `C[C@@H](O)[C@H](NC(=O)[C@@H]1CCCN1C(=O)[C@@H]1CCCN1)C(=O)N1CCC[C@H]1C(=O)O` (H-PPTP-OH), the IC50 was determined as 40.5 µM. Consider `C[C@@H](O)[C@H](NC(=O)[C@@H](N)CO)C(=O)N1CCC[C@H]1C(=O)N1CCC[C@H]1C(=O)O` (H-STPP-OH), for which the IC50 was 73 µM. For `O=C(O)[C@H](CO)NC(=O)[C@@H]1CCCN1C(=O)[C@H](CO)NC(=O)[C@@H]1CCCN1` (H-PSPS-OH), the half-inhibitory concentration (IC50) was more than 1000 µM.

For `CC(=O)N[C@H](C(=O)N1CCC[C@H]1C(=O)N[C@@H](CO)C(=O)N1CCC[C@H]1C(=O)O)[C@@H](C)O` (Ac-TPSP-OH), the IC50 was 183 µM.

Take `CC(=O)N1CCC[C@H]1C(=O)N[C@@H](CO)C(=O)N1CCC[C@H]1C(=O)N[C@@H](CO)C(N)=O` [ACETYLPROLYLSERYLPROLYLSERINAMIDE(ACPSPSNH2)] (Ac-PSPS-NH2): the half-maximal inhibitory concentration (IC50) is more than 1000 µM. With `CC(=O)N1CCC[C@H]1C(=O)N1CCC[C@H]1C(=O)N[C@H](C(=O)N1CCC[C@H]1C(N)=O)[C@@H](C)O` [ACETYLPROLYLPROLYLTHREONYLPROLINAMIDE(ACPPTPNH2)] (Ac-PPTP-NH2) the figure was more than 1000 µM; with `C[C@@H](O)[C@H](N)C(=O)N1CCC[C@H]1C(=O)N1CCC[C@H]1C(=O)N[C@H](C(=O)O)[C@@H](C)O` (H-TPPT-OH), more than 1000 µM.

For the compound `CC(=O)N1CCC[C@H]1C(=O)N[C@H](C(=O)N1CCC[C@H]1C(=O)N[C@@H](CO)C(N)=O)[C@@H](C)O` [ACETYLPROLYLTHREONYLPROLYLSERINAMIDE(ACPTPSNH2)] (Ac-PTPS-NH2), the IC50 was more than 1000 µM. As to `CC(=O)N1CCC[C@H]1C(=O)N[C@H](C(=O)N1CCC[C@H]1C(=O)N[C@@H](CO)C(=O)O)[C@@H](C)O` (Ac-PTPS-OH), it took 23.8 µM to reach half-maximal inhibition (IC50). In the case of `CC(=O)N[C@H](C(=O)N1CCC[C@H]1C(=O)N[C@@H](CO)C(=O)N1CCC[C@H]1C(N)=O)[C@@H](C)O` [ACETYLTHREONYLPROLYLSERYLPROLINAMIDE(ACTPSPNH2)] (Ac-TPSP-NH2) it was more than 1000 µM; in that of `CC(=O)N[C@H](C(=O)N1CCC[C@H]1C(=O)N1CCC[C@H]1C(=O)N[C@H](C(N)=O)[C@@H](C)O)[C@@H](C)O` (Ac-TPPT-NH2), more than 1000 µM.

Compound `NC(=O)[C@H](CO)NC(=O)[C@@H]1CCCN1C(=O)[C@H](CO)NC(=O)[C@@H]1CCCN1` (H-PSPS-NH2) yielded an IC50 of more than 1000 µM.

For `C[C@@H](O)[C@H](NC(=O)[C@@H](N)CO)C(=O)N1CCC[C@H]1C(=O)N1CCC[C@H]1C(N)=O` (H-STPP-NH2), the IC50 was more than 1000 µM. With `CC(=O)N[C@@H](CO)C(=O)N[C@H](C(=O)N1CCC[C@H]1C(=O)N1CCC[C@H]1C(=O)O)[C@@H](C)O` (Ac-STPP-OH) the figure was 9.7 µM. Regarding `C[C@@H](O)[C@H](NC(=O)[C@@H]1CCCN1)C(=O)N1CCC[C@H]1C(=O)N[C@@H](CO)C(N)=O` (H-PTPS-NH2), the IC50 is 5.3 µM.
